Test results as given in ChEMBL document CHEMBL3826905, “1'-Homonucleosides and their structural analogues: A review” (Eur J Med Chem, 2016).
Converted amounts (≈) assume the structure as drawn.

Assays:
CCRF-CEM [1] = assay: Cytostatic activity against human CEM cells; format: functional
MOLT-4 = assay: Cytostatic activity against human Molt4/C8 cells; format: functional, cell-based
[2] = Cytostatic activity against mouse L1210/0 cells; format: functional, cell-based
[3] = tested on: unidentified influenza virus; assay: Antiviral activity against Influenza virus; format: functional
[4] = Antiproliferative activity against human Molt4/C8 cells; format: functional, cell-based; details: MOLT-4
Influenza A virus = assay: Antiviral activity against Influenza A virus; format: functional, organism-based
[5] = Binding affinity to HSV1 uracil-DNA glycosylase after 30 mins by electrophoretic mobility shift assay; set-up: species or system Human alphaherpesvirus 1
Human betaherpesvirus 5 = assay: Antiviral activity against HCMV infected in HEL cells assessed as inhibition of virus-induced cytopathic effect after 6 days; format: functional, organism-based; details: Human betaherpesvirus 5, HEL, 144 h
[6] = tested on: Vesicular stomatitis virus; assay: Antiviral activity against Vesicular stomatitis virus; format: functional, organism-based
Vaccinia virus = assay: Antiviral activity against Vaccinia virus; format: functional, organism-based; details: Orthopoxvirus vaccinia
[7] = tested on: Human immunodeficiency virus 1; assay: Antiviral activity against HIV1 infected in human MT4 cells assessed as inhibition of virus-induced cytopathic effect; format: functional, organism-based; details: Human immunodeficiency virus 1, MT4
Human alphaherpesvirus 2 = assay: Antiviral activity against Herpes simplex virus 2 G assessed as inhibition of virus-induced cytopathic effect by cell based assay; format: functional; details: Human alphaherpesvirus 2, strain G
Human alphaherpesvirus 1 = assay: Antiviral activity against Herpes simplex virus 1 KOS assessed as inhibition of virus-induced cytopathic effect by cell based assay; format: functional; details: Human alphaherpesvirus 1, KOS
[8] = Inhibition of Trichomonas vaginalis purine nucleoside phosphorylase using […] as substrate by xanthine oxidase coupled enzyme assay
[9] = target: T1, Inosine-adenosine-guanosine-nucleoside hydrolase (Trypanosoma brucei brucei, UniProt O15727); assay: Inhibition of Trypanosoma brucei brucei inosine-adenosine-guanosine nucleoside hydrolase expressed in Escherichia coli
T1 sequence (O15727 whole entry): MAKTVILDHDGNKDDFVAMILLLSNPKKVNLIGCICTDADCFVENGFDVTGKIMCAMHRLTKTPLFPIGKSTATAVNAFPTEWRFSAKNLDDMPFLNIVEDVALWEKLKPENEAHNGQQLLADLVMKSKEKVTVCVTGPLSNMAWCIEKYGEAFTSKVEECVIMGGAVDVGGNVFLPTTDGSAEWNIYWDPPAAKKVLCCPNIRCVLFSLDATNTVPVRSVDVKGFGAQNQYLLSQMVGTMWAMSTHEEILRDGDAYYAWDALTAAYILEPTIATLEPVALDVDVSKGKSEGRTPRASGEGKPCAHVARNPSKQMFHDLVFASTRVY

[10] = target: T2, Inosine-uridine preferring nucleoside hydrolase (Crithidia fasciculata, UniProt Q27546); assay: Inhibition of Crithidia fasciculata inosine-uridine nucleoside hydrolase expressed in Escherichia coli using p-nitrophenyl beta-D-ribofuranoside as substrate by xanthine oxidase coupled enzyme assay
T2 sequence (Q27546 whole entry): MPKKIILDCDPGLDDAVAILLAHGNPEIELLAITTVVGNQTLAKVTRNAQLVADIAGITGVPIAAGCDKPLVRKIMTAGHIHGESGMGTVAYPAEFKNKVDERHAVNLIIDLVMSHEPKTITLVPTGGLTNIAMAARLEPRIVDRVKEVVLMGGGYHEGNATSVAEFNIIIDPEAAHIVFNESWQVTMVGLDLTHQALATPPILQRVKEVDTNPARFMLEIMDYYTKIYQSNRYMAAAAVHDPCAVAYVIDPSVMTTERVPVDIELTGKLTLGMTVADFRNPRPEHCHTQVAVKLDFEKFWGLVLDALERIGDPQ

CCRF-CEM [11] = assay: Growth inhibition of human CCRF-CEM cells; format: functional, cell-based
Hepatitis C virus = assay: Antiviral activity against Hepatitis C virus; format: functional, organism-based, Hepacivirus hominis
[12] = Cytotoxicity against African green monkey Vero cells; format: cell-based; details: chlorocebus sabaeus
[13] = Cytotoxicity against human E6SM cells; format: cell-based
[14] = Cytotoxicity against human HeLa cells; format: cell-based
[15] = Cytotoxicity against MDCK cells; format: cell-based, Canis lupus familiaris; details: dog
[16] = Cytotoxicity against human CEM/0 cells; format: cell-based, CCRF-CEM
[17] = Antiproliferative activity against mouse L1210/0 cells; format: functional, cell-based
[18] = Cytotoxicity against HEL cells; format: cell-based; details: human

## CC1(C)[C@@H](CO)CC[C@@]1(C)Cn1cnc2c(Cl)ncnc21
CCRF-CEM [1]
  Activity: 14 µg/mL
MOLT-4
  Activity: 9 µg/mL
[2]
  Activity: 13 µg/mL

## CC1(C)[C@@H](Cn2cnc3c(Cl)ncnc32)CC[C@@]1(C)CO
[3]
  MIC: 10 µg/mL (≈ 32.4 µM)
[4]
  IC50: 3.8 µg/mL (≈ 12.3 µM)

## O=c1ccn(C[C@H]2C[C@H](O)[C@@H](CO)O2)c(=O)[nH]1
Influenza A virus
  IC50: 94.2 µg/mL (≈ 389 µM)
[5]
  Kd: 0.16 µM

## Nc1ncnc2c1ncn2CC1(CO)CC=CC1
Human betaherpesvirus 5
  EC50: 78.1 µM

## Cc1ccc(S(=O)(=O)OC[C@H]2OC[C@@H]3OCO[C@@H]32)cc1
[6]
  IC50: > 400 µg/mL
Vaccinia virus
  IC50: > 400 µg/mL

## Nc1ccn(CC2(CO)CC=CC2)c(=O)n1
[7]
  EC50: 56.4 µM

## Nc1nc2c(ncn2C[C@H]2C[C@H](O)[C@@H](CO)O2)c(=O)[nH]1
Human alphaherpesvirus 2
  MIC: 5 µg/mL (≈ 17.8 µM)
Human alphaherpesvirus 1
  MIC: 5 µg/mL (≈ 17.8 µM)

## Nc1ncnc2c1ncn2C[C@@H]1N[C@H](CO)[C@@H](O)[C@H]1O
[8]
  Ki: > 10 µM
[9]
  Ki: 3.6 µM
[10]
  Ki: 5.4 µM

## Clc1ncnc2c1ncn2CC12CCC(O1)c1cc3ccccc3cc12 (stereo unspecified)
CCRF-CEM [11]
  IC50: 5.73 µM
Hepatitis C virus
  EC50: 6.31 µM

## Nc1ncnc2c1ncn2C[C@H]1CC[C@@H](CO)C1
[12]
  CC50: 80 µg/mL (≈ 323 µM)
[13]
  CC50: 80 µg/mL (≈ 323 µM)
[14]
  CC50: 80 µg/mL (≈ 323 µM)
[4]
  IC50: 73 µg/mL (≈ 295 µM)
[15]
  CC50: 80 µg/mL (≈ 323 µM)
[16]
  CC50: 80 µg/mL (≈ 323 µM)
[17]
  IC50: 73 µg/mL (≈ 295 µM)
[18]
  CC50: 80 µg/mL (≈ 323 µM)
